A short description of series [1]: Human Liver Microsomal (HLM) stability assay. It counts as in vitro ADME. Here is the method: Liver homogenates provide a measure of a compounds inherent vulnerability to Phase I (oxidative) enzymes, including CYP450s (e.g. CYP2C8, CYP2D6, CYP1A, CYP3A4, CYP2E1), esterases, amidases and flavin monooxygenases (FMOs).
The half life (T½) of test compounds was determined, on exposure to Human Liver Microsomes, by monitoring their disappearance over time by LC-MS. Compounds at 0.001 mM were incubated at for 40 min at 37° C., 0.1 M Tris-HCl, pH 7.4 with human microsomal sub-cellular fraction of liver at 0.25 mg/mL protein and saturating levels of NADPH as co-factor. At timed intervals, acetonitrile was added to test samples to precipitate protein and stop metabolism. Samples were centrifuged and analysed for parent compound using analytical Method A (see Materials & Methods).
Background: Microsomes from liver hold many membrane-bound enzymes, among them those of drug oxidation.

The subject of series [2] is panel of 12 human tumour cell lines. The series can be described thus: Monolayer proliferation assay Protocol 1, mean across the cell lines tested. It counts as cell-based. Here is the method: In vitro evaluation of compounds for anticancer activity in a panel of 12 human tumour cell lines in a monolayer proliferation assay were carried out at the Oncotest Testing Facility, Institute for Experimental Oncology, Oncotest GmbH, Freiburg.
A modified propidium iodide assay was used to assess the effects of the test compound(s) on the growth of twelve human tumor cell lines (Dengler et al, 1995).
Briefly, cells were harvested from exponential phase cultures by trypsinization, counted and plated in 96 well flat-bottomed microtitre plates at a cell density dependent on the cell line (5-10.000 viable cells/well). […] Each concentration was plated in triplicate. 39-Desmethoxyrapamycin was applied in two concentrations (0.001 mM and 0.01 mM).
Growth inhibition was expressed as treated/control×100 (% TIC). For active compounds, IC50 & IC70 values were estimated by plotting compound concentration versus cell viability.
In vitro evaluation of 39-desmethoxyrapamycin for anticancer activity in a panel of 12 human tumour cell lines in a monolayer proliferation assay was carried out as described as Protocol 1 in the general methods above using a modified propidium iodide assay.

The test system of a further series is A498. The series can be described thus: Monolayer assay Protocol 2 (SRB), high MDR-expressing cell lines. It counts as cell-based, human. The settings on record: Renal A498, high MDR-expressing, 48 h. As to the method: The human tumor cell lines of the National Cancer Institute (NCI) cancer screening panel were grown in RPMI 1640 medium containing 5% fetal bovine serum and 2 mM L-glutamine (Boyd and Paull, 1995). Cells were inoculated into 96 well microtiter plates in 0.1 mL at plating densities ranging from 5,000 to 40,000 cells/well depending on the doubling time of individual cell lines. After cell inoculation, the microtiter plates were incubated at 37° C., 5% CO2, 95% air and 100% relative humidity for 24 h prior to addition of experimental drugs.
After 24 h, two plates of each cell line were fixed in situ with trichloroacetic acid (TCA), to represent a measurement of the cell population for each cell line at the time of drug addition (Tz). Experimental drugs were solubilized in dimethyl sulfoxide at 400-fold the desired final maximum test concentration and stored frozen prior to use. At the time of drug addition, an aliquot of frozen concentrate was thawed and diluted to twice the desired final maximum test concentration with complete medium containing 0.05 mg/mL gentamicin. Additional four, 10-fold or ½ log serial dilutions were made to provide a total of five drug concentrations plus control. Aliquots of 0.1 mL of these different drug dilutions were added to the appropriate microtiter wells already containing 0.1 mL of medium, resulting in the required final drug concentrations.
Following drug addition, the plates were incubated for an additional 48 h at 37° C., 5% CO2, 95% air, and 100% relative humidity. For adherent cells, the assay was terminated by the addition of cold TCA. Cells were fixed in situ by the gentle addition of 0.05 mL of cold 50% (w/v) TCA (final concentration, 10% TCA) and incubated for 60 minutes at 4° C. The supernatant was discarded, and the plates were washed five times with tap water and air dried. Sulforhodamine B (SRB) solution (0.1 mL) at 0.4% (w/v) in 1% acetic acid was added to each well, and plates were incubated for 10 minutes at room temperature. After staining, unbound dye was removed by washing five times with 1% acetic acid and the plates were air dried. Bound stain was subsequently solubilized with 10 mM trizma base, and the absorbance was read on an automated plate reader at a wavelength of 515 nm. […] Using the seven absorbance measurements [time zero, (Tz), control growth, (C), and test growth in the presence of drug at the five concentration levels (Ti)], the percentage growth was calculated at each of the drug concentrations levels. Percentage growth inhibition was calculated as:
(§1) Three dose response parameters were calculated for each experimental agent. […] The drug concentration resulting in total growth inhibition (TGI) was calculated from Ti=Tz. […]

For a further series, the system named is NCI 60 cell line panel. Briefly: NCI 60 cell line panel monolayer proliferation assay (Protocol 2, SRB) with COMPARE analysis. The note with it: with the exception of one cell line. It counts as cell-based, human. Here is the method: The COMPARE analysis uses a Pearson analysis to compare the activity of two compounds on the NCI 60-cell line panel and produces a correlation coefficient which indicates how similar the two compounds spectra of activity are and this may indicate how related their mechanism's of action are.
The human tumor cell lines of the National Cancer Institute (NCI) cancer screening panel were grown in RPMI 1640 medium containing 5% fetal bovine serum and 2 mM L-glutamine (Boyd and Paull, 1995). Cells were inoculated into 96 well microtiter plates in 0.1 mL at plating densities ranging from 5,000 to 40,000 cells/well depending on the doubling time of individual cell lines. […]
Following drug addition, the plates were incubated for an additional 48 h at 37° C., 5% CO2, 95% air, and 100% relative humidity. […] Bound stain was subsequently solubilized with 10 mM trizma base, and the absorbance was read on an automated plate reader at a wavelength of 515 nm. […] Using the seven absorbance measurements [time zero, (Tz), control growth, (C), and test growth in the presence of drug at the five concentration levels (Ti)], the percentage growth was calculated at each of the drug concentrations levels. Percentage growth inhibition was calculated as:
as §1

The nature of series [3]: Pharmacokinetic analysis Protocol 1 (blood and brain). The settings on record: female, CD1, mouse, 3 mg/kg.
Protocol: The test compounds were prepared in a vehicle consisting of 4% Ethanol, 5% Tween-20, 5% polyethyleneglycol 400 in 0.15M NaCl. A single dbse of 10 mg/kg p.o. or 3 mg/kg i.v. was administered to groups of female CD1 mice (3 mice for each compound per time point). At 0 min, 4 min, 15 min, 1 h, 4 h, and 24 h groups were sacrificed and the blood and the brain were collected from each mouse for further analysis.
The brain samples were snap frozen in liquid nitrogen and stored at −20° C. A minimum of 0.2 mL of whole blood from each animal was collected in tubes containing ethylene diamine tetra-acetic acid (EDTA) as anticoagulant, thoroughly mixed, and stored at −20° C.
Analysis was performed by ASI Limited, (St George's Hospital Medical School, London). The concentration of the test compound in the blood and brain samples supplied was determined by HPLC with MS detection. Control, test compound free, blood samples were obtained from Harlan Sera-Lab Limited, (Loughborough, England). Time zero brain samples were supplied as control, test compound free, brain samples.
One hemisphere of each brain was homogenized with 5 mL water.
The control or test sample of mouse brain or blood (0.05 mL), internal standard solution (0.1 mL), 5% Zinc sulphate solution (0.5 mL), and acetone (0.5 mL) were pipetted into a 2 mL polypropylene tube (Sarstedt Limited, Beaumont Leys, Leicester, UK) and the contents were then mixed for a minimum of 5 minutes (IKA-Vibrax-VXR mixer, Merck (BDH) Limited, Poole Dorset, UK). The tubes were then centrifuged in a microfuge for a minimum of 2 minutes. The solvent layer was decanted into a 4.5 mL polypropylene tube containing sodium hydroxide (0.1M, 0.1 mL) and methyl-tert-butyl ether (MTBE, 2 mL). The tube was then mixed for a minimum of 5 minutes (IKA-Vibrax-VXR mixer) and then centrifuged at 3500 rpm for 5 minutes. The solvent layer was transferred to a 4.5 mL conical polypropylene tube, placed in a SpeedVac® and evaporated to dryness.
The dried extracts were reconstituted with 0.15 mL 80% methanol and mixed for a minimum of 5 minutes (IKA-Vibrax-VXR mixer) and centrifuged at 3500 rpm for 5 minutes. The extract was transferred to auto sampler tubes (NLG Analytical, Adelphi Mill, Bollington, Cheshire, UK) and placed into the auto-sampler tray which was set at ambient temperature. The auto-sampler was programmed to inject a 0.03 mL aliquot of each extract onto the analytical column.
The AUC for each compound in blood or in brain tissue was calculated using Kinetica 4.4 (InnaPhase Corporation), using a non-compartmental model and the trapezoidal method for AUC calculation.
The partition coefficient (Ri) for each compound after p.o. and i.v. administration was calculated as shown below:
The partition coefficient (R) for each compound after i.v. administration was calculated as shown below:

These results are taken from patent publication US20100061994A1, “MEDICAL USES OF 39-DESMETHOXYRAPAMYCIN AND ANALOGUES THEREOF” (priority 2005, published 2010).

Read-outs that look alike come from different tables or passages of the source.

For orientation: IC50 means the point on the concentration scale where inhibition reaches its midpoint. High values mean weaker potency, low ones greater potency. One may read the Kp as tissue or fluid exposure divided by exposure in the circulation. As usually defined, the AUC is concentration integrated over time. Low values mean less exposure, high ones more exposure. Usually GI50 stands for the concentration giving 50% growth inhibition. Low values mean greater sensitivity of the cells, high ones lower sensitivity of the cells.

For the compound `COC1CC2CCC(C)C(O)(O2)C(=O)C(=O)N2CCCCC2C(=O)OC(C(C)CC2CCC(O)CC2)CC(=O)C(C)C=C(C)C(O)C(OC)C(=O)C(C)CC(C)C=CC=CC=C1C` (stereo not drawn) [39-desmethoxyrapamycin], in series [1], the “metabolic stability compared to rapamycin” value is reported as “increased metabolic stability”. Moreover, in series [1] (0.001 mM, 0.25 mg/mL protein, NADPH, 37° C.), the “HLM stability: T½ min” value is 59 min. In addition, in series [2], the IC50 was 3.25 µM and the “Mean IC70” value is 6.95 µM. In addition, the “Log GI50” value with A498 was −7.07. Further, in the series on NCI 60 cell line panel, the “efficacy against high MDR-expressing cell lines when compared to rapamycin” value is “equivalent or improved efficacy”.

On to `CO[C@H]1C[C@@H]2CC[C@@H](C)[C@@](O)(O2)C(=O)C(=O)N2CCCC[C@H]2C(=O)O[C@H]([C@H](C)C[C@@H]2CC[C@@H](O)[C@H](OC)C2)CC(=O)[C@H](C)/C=C(\C)[C@@H](O)[C@@H](OC)C(=O)[C@H](C)C[C@H](C)/C=C/C=C/C=C/1C` [Rapamycin], for which the half-life at 0.001 mM in series [1] (human, liver microsomes, pH 7.4, 0.001 mM, 0.25 mg/mL protein, NADPH, 37° C., read-out: HLM stability: T½ min) was 40 min. In addition, the partition ratio (Kp) in series [3] (brain / whole blood, intravenous) worked out at 1.13. In series [3] (whole blood, iv), this compound had an AUC of 10800 ng·h/mL. The “Mean IC70” value in series [2] turned out to be 9.1 µM. In series [2] (Homo sapiens), this compound showed an IC50 of 3.5 µM. Besides, growth in the series with A498 (Homo sapiens) was halved (GI50) at 0.251 µM.
